Data set [1] can be described thus: Particle size, PDI and Zeta potential of lipid compound nanoparticles (DLS). Format: physicochemical. As to conditions: LNP with pDNA-GFP-Luc, lipid compound:Cholesterol:DOPE:DSPE-PEG=40:48:10:2, N/P 24:1, pH=5.3. As for the experimental part: Lipid compounds 3-2-C8, 3-3-C8, 3-4-C8, 3-5-C8, 10-2-C8, 10-3-C8, 10-4-C8 and 10-5-C8 were used as nanocarrier materials to encapsulate pDNA-GFP-Luc to test the particle size (Size), polymer dispersion index (PDI) and Zeta potential of the lipid nanoparticles.
Ionizable lipids 3-2-C8, 3-3-C8, 3-4-C8, 3-5-C8, 10-2-C8, 10-3-C8, 10-4-C8, 10-5-C8 and dioleoyl phosphatidyl ethanolamine (DOPE), cholesterol, distearoylphosphatidylacetamide-polyethylene glycol (DSPE-PEG) were dissolved in anhydrous ethanol at a certain concentration, the components were uniformly mixed according to a certain molar ratio of lipid compound:Cholesterol:DOPE:DSPE-PEG=40:48:10:2, at the same time, a proper amount of pDNA-GFP-Luc was dissolved in sodium acetate buffer (the volume of sodium acetate buffer was twice the total volume of lipid mixture, pH=5.3), and the pDNA-GFP-Luc dissolved in the buffer was taken into the lipid mixture solution, and quickly mixed to assemble into lipid nanoparticles, the mixed solution was incubated at room temperature for 15 min, and the particle size and potential were tested by dynamic light scattering instrument (DLS). The nitrogen-phosphorus ratio (N/P ratio) of ionizable lipid to pDNA (24:1) was the optimal ratio, that is, the molar ratio between the protonated amino group on the ionized lipid and the phosphate group on the DNA. 2) Analysis of experimental results:
FIG. 11 is the particle size test diagram of nanoparticles prepared by lipid compounds. Table 2 is the Zeta potential test results of nanoparticles prepared by lipid compounds.
The charge is 13.0±1.56-28.7±4.36 mV, which is consistent with the characteristics of lipid nanoparticles, the smaller particle sizes can exert the high permeability and long retention effect (EPR), leading to better accumulation in the tumor sites.

A short description of data set [2]: In vivo RNA imaging (IVIS) of repRNA-Luc delivery after intramuscular injection. Further details: species or system C57BL/6 mice. As to conditions: for repRNA-Luc expression by IVIS: 3rd day after intramuscular injection, 150 ng repRNA-Luc, DSPC LNP; for course of expression values with time (IVIS total flux): after intramuscular injection of repRNA-Luc LNP. From the text:
Ionizable lipid compounds 3-4-C8, 3-5-C8, 10-4-C8, 10-5-C8, and 11-4-C8 were used to deliver self-amplifying RNA (Rep RNA-Luc) encoding firefly luciferase (Luc) in C57BL/6 mice. After intramuscular injection in mice, the in vivo imaging system (IVIS) was used to detect on the 3rd, 5th, and 7th day after injection.
1) The specific steps are the same with the lipid compound delivering RNA test in performance test 3, the difference in this performance test, the experimental group: ionizable lipid compounds 3-4-C8, 3-5-C8, 10-4-C8, 10-5-C8 or 11-4-C8 and distearoyl phosphatidylcholine (DSPC), cholesterol (Cholesterol), distearoyl phosphatidylacetamide-polyethylene glycol (DSPE-PEG) or blank group are dissolved in anhydrous and non-enzymatic ethanol according to a certain concentration, the use of the ratio is ionizable lipid compounds 3-4-C8, 8-4-C8, 10-4-C8 or 11-4-C8:Cholesterol:DSPC:DSPE-PEG=40:48:10:2. A proper amount of repRNA-Luc was dissolved in sodium acetate buffer (the volume of sodium acetate buffer was twice the total volume of the lipid mixture, pH=5.3), the repRNA-Luc dissolved in the buffer was added into the lipid mixture solution and quickly mixed to assemble into lipid nanoparticles, the mixed solution was incubated at room temperature for 15 min, and then dialyzed in ultrapure water for 0.5 h using a dialysis bag (14000 MW), finally, 10% glucose solution was added to the lipid nanoparticle solution to adjust the osmotic pressure for intramuscular injection (LNP containing 150 ng of repRNA-Luc in each dose). Among them, the N/P ratio of ionizable lipid to mRNA (N/P ratio) is 24:1, which is the optimal ratio, that is, the molar ratio between the protonated amino group on the ionizable lipid and the phosphate group on the DNA.
FIG. 18 is the detection map of the in vivo imaging system for lipid nanoparticles injected into mice. FIG. 19 is an injection time and total flux of the lipid compound.

The results in this text go back to patent US20250090462A1, “LIPID COMPOUND AND PREPARATION METHOD THEREFOR, AND USE THEREOF” (South China University of Technology, priority 2022, published 2025).

Each structure is given as a SMILES string.

On to `CCCCCCCCC(CCCCCCCC)OC(=O)NCCOC(=O)CCN(CCC(=O)OCCNC(=O)OC(CCCCCCCC)CCCCCCCC)CCN1CCCC1` [3-2-C8], for which the Zeta potential in data set [1] is 13.0 ± 1.56 mV.
On the same count and under the same terms, next, `CCCCCCCCC(CCCCCCCC)OC(=O)NCCOC(=O)CCN(CCC(=O)OCCNC(=O)OC(CCCCCCCC)CCCCCCCC)CCN(C)C` [10-2-C8]: 20.7 ± 2.77 mV.
In turn, `CCCCCCCCC(CCCCCCCC)OC(=O)NCCCCOC(=O)CCN(CCC(=O)OCCCCNC(=O)OC(CCCCCCCC)CCCCCCCC)CCN(C)C` [10-4-C8] yielded a Zeta potential in data set [1] of 23.5 ± 4.87 mV. In data set [2], the “repRNA-Luc expression by IVIS” value was “successfully expressed” and the “course of expression values with time (IVIS total flux)” value is listed as “increased with time”.
Taken in the same sequence, the figures for `CCCCCCCCC(CCCCCCCC)OC(=O)NCCCCOC(=O)CCN(CCC(=O)OCCCCNC(=O)OC(CCCCCCCC)CCCCCCCC)CCN1CCCC1` [3-4-C8] were 20.2 ± 3.07 mV, “successfully expressed” and “increased with time”.
